According to PubChem BioAssay (NCI):
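Grown in 96-well plates, cells were treated for 48 hours with each compound at five concentrations. Insufficient inhibition: endpoint recorded as highest concentration tested. TGI marks complete inhibition of growth.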

Tests used:
Assay in all cases: growth of human tumour cells (NCI), 48 h
HCC-2998 colon = tested on: HCC-2998 colon
NCI-H23 lung = tested on: NCI-H23 lung
RPMI-8226 leukemia = tested on: RPMI-8226 leukemia
A498 renal = tested on: A498 renal
OVCAR-3 ovarian = tested on: OVCAR-3 ovarian
NCI-H522 lung = tested on: NCI-H522 lung
UACC-257 melanoma = tested on: UACC-257 melanoma
SF-268 CNS = tested on: SF-268 CNS
UACC-62 melanoma = tested on: UACC-62 melanoma
DU-145 prostate = tested on: DU-145 prostate
MDA-N = tested on: MDA-N
CCRF-CEM leukemia = tested on: CCRF-CEM leukemia
A549 NSCLC = tested on: A549 NSCLC
MDA-MB-231 breast = tested on: MDA-MB-231 breast
HOP-62 NSCLC = tested on: HOP-62 NSCLC
IGROV1 ovarian = tested on: IGROV1 ovarian
SR leukemia = tested on: SR leukemia
SK-MEL-2 melanoma = tested on: SK-MEL-2 melanoma
K-562 leukemia = tested on: K-562 leukemia
SK-MEL-28 melanoma = tested on: SK-MEL-28 melanoma
NCI-H460 lung = tested on: NCI-H460 lung
HL-60(TB) leukemia = tested on: HL-60(TB) leukemia
ACHN renal = tested on: ACHN renal
SW-620 colon = tested on: SW-620 colon
786-0 renal = tested on: 786-0 renal
U251 CNS = tested on: U251 CNS
SNB-19 CNS = tested on: SNB-19 CNS
HT29 colon = tested on: HT29 colon
MDA-MB-435 = tested on: MDA-MB-435
HCT-116 colon = tested on: HCT-116 colon
SN12C renal = tested on: SN12C renal
NCI-H226 lung = tested on: NCI-H226 lung
MALME-3M melanoma = tested on: MALME-3M melanoma
T-47D breast = tested on: T-47D breast
SNB-75 CNS = tested on: SNB-75 CNS
OVCAR-5 ovarian = tested on: OVCAR-5 ovarian
OVCAR-8 ovarian = tested on: OVCAR-8 ovarian
M14 melanoma = tested on: M14 melanoma
CAKI-1 renal = tested on: CAKI-1 renal
SK-MEL-5 melanoma = tested on: SK-MEL-5 melanoma
PC-3 prostate = tested on: PC-3 prostate
UO-31 renal = tested on: UO-31 renal
MOLT-4 leukemia = tested on: MOLT-4 leukemia
HCT-15 colon = tested on: HCT-15 colon
LOX IMVI melanoma = tested on: LOX IMVI melanoma
OVCAR-4 ovarian = tested on: OVCAR-4 ovarian
TK-10 renal = tested on: TK-10 renal
SF-539 CNS = tested on: SF-539 CNS
SF-295 CNS = tested on: SF-295 CNS
NCI/ADR-RES ovarian = tested on: NCI/ADR-RES ovarian
RXF 393 renal = tested on: RXF 393 renal
HS 578T breast = tested on: HS 578T breast
MCF7 breast = tested on: MCF7 breast
SK-OV-3 ovarian = tested on: SK-OV-3 ovarian
COLO 205 colon = tested on: COLO 205 colon
KM12 colon = tested on: KM12 colon
EKVX NSCLC = tested on: EKVX NSCLC
BT-549 breast = tested on: BT-549 breast
HOP-92 NSCLC = tested on: HOP-92 NSCLC

Compound: O=C(N=Nc1cccc(Cl)c1)NNc1cccc(Cl)c1
- TGI (HCC-2998 colon): 28.9 µM
- TGI (NCI-H23 lung): > 100 µM
- TGI (RPMI-8226 leukemia): 56.8 µM
- TGI (A498 renal): 44.9 µM
- TGI (OVCAR-3 ovarian): 29.9 µM
- TGI (NCI-H522 lung): 42.6 µM
- TGI (UACC-257 melanoma): 54.3 µM
- TGI (SF-268 CNS): 73.6 µM
- TGI (UACC-62 melanoma): 24.1 µM
- TGI (DU-145 prostate): 41.8 µM
- TGI (MDA-N): 31.2 µM
- TGI (CCRF-CEM leukemia): 48.5 µM
- TGI (A549 NSCLC): 94.6 µM
- TGI (MDA-MB-231 breast): 74.6 µM
- TGI (HOP-62 NSCLC): 22.2 µM
- TGI (IGROV1 ovarian): 43.3 µM
- TGI (SR leukemia): 90.7 µM
- TGI (SK-MEL-2 melanoma): 24.6 µM
- TGI (K-562 leukemia): 39.6 µM
- TGI (SK-MEL-28 melanoma): 41 µM
- TGI (NCI-H460 lung): 34.2 µM
- TGI (HL-60(TB) leukemia): 41.7 µM
- TGI (ACHN renal): 50.8 µM
- TGI (SW-620 colon): 35.5 µM
- TGI (786-0 renal): 28.4 µM
- TGI (U251 CNS): 40 µM
- TGI (SNB-19 CNS): > 100 µM
- TGI (HT29 colon): 43.5 µM
- TGI (MDA-MB-435): 26.5 µM
- TGI (HCT-116 colon): 21.2 µM
- TGI (SN12C renal): 35.9 µM
- TGI (NCI-H226 lung): > 100 µM
- TGI (MALME-3M melanoma): 39.6 µM
- TGI (T-47D breast): > 100 µM
- TGI (SNB-75 CNS): > 100 µM
- TGI (OVCAR-5 ovarian): 46.5 µM
- TGI (OVCAR-8 ovarian): 50.1 µM
- TGI (M14 melanoma): 32.2 µM
- TGI (CAKI-1 renal): 91.1 µM
- TGI (SK-MEL-5 melanoma): 38.4 µM
- TGI (PC-3 prostate): 36 µM
- TGI (UO-31 renal): 45.5 µM
- TGI (MOLT-4 leukemia): 42.7 µM
- TGI (HCT-15 colon): 75.7 µM
- TGI (LOX IMVI melanoma): 26.8 µM
- TGI (OVCAR-4 ovarian): 52.6 µM
- TGI (TK-10 renal): 66.6 µM

Compound: C1=C(c2ccccc2)Nc2nnnn2C1c1ccccc1 (stereo not drawn)
- TGI (NCI-H23 lung): > 100 µM
- TGI (A498 renal): > 100 µM
- TGI (OVCAR-3 ovarian): > 100 µM
- TGI (NCI-H522 lung): 69.8 µM
- TGI (SF-539 CNS): 81 µM
- TGI (UACC-257 melanoma): > 100 µM
- TGI (SF-268 CNS): > 100 µM
- TGI (UACC-62 melanoma): > 100 µM
- TGI (DU-145 prostate): 72.5 µM
- TGI (MDA-N): > 100 µM
- TGI (SF-295 CNS): 88.5 µM
- TGI (CCRF-CEM leukemia): 0.0305 µM
- TGI (A549 NSCLC): > 100 µM
- TGI (MDA-MB-231 breast): > 100 µM
- TGI (NCI/ADR-RES ovarian): > 100 µM
- TGI (HOP-62 NSCLC): > 100 µM
- TGI (IGROV1 ovarian): > 100 µM
- TGI (SR leukemia): 51.3 µM
- TGI (RXF 393 renal): 51.1 µM
- TGI (SK-MEL-2 melanoma): > 100 µM
- TGI (K-562 leukemia): > 100 µM
- TGI (NCI-H460 lung): > 100 µM
- TGI (HL-60(TB) leukemia): 64.4 µM
- TGI (ACHN renal): 57.2 µM
- TGI (HS 578T breast): > 100 µM
- TGI (SW-620 colon): 55.9 µM
- TGI (786-0 renal): > 100 µM
- TGI (U251 CNS): 52 µM
- TGI (SNB-19 CNS): > 100 µM
- TGI (HT29 colon): 41.5 µM
- TGI (MDA-MB-435): 47 µM
- TGI (HCT-116 colon): 22.3 µM
- TGI (MCF7 breast): 84.6 µM
- TGI (SN12C renal): > 100 µM
- TGI (NCI-H226 lung): > 100 µM
- TGI (T-47D breast): > 100 µM
- TGI (OVCAR-5 ovarian): > 100 µM
- TGI (OVCAR-8 ovarian): > 100 µM
- TGI (M14 melanoma): 79.8 µM
- TGI (CAKI-1 renal): > 100 µM
- TGI (SK-OV-3 ovarian): > 100 µM
- TGI (COLO 205 colon): > 100 µM
- TGI (SK-MEL-5 melanoma): > 100 µM
- TGI (PC-3 prostate): > 100 µM
- TGI (KM12 colon): 28.6 µM
- TGI (UO-31 renal): > 100 µM
- TGI (MOLT-4 leukemia): 60.3 µM
- TGI (HCT-15 colon): 37.7 µM
- TGI (LOX IMVI melanoma): 38.3 µM
- TGI (TK-10 renal): 73.9 µM

Compound: C[n+]1c(-c2ccc(/C=N/NC(=O)C(=O)N/N=C/c3ccc(-c4cn5ccsc5[n+]4C)cc3)cc2)cn2ccsc21
- TGI (HCC-2998 colon): > 100 µM
- TGI (RPMI-8226 leukemia): > 100 µM
- TGI (NCI-H522 lung): > 100 µM
- TGI (SF-539 CNS): > 100 µM
- TGI (UACC-257 melanoma): > 100 µM
- TGI (SF-268 CNS): > 100 µM
- TGI (MDA-N): > 100 µM
- TGI (SF-295 CNS): > 100 µM
- TGI (CCRF-CEM leukemia): > 100 µM
- TGI (A549 NSCLC): > 100 µM
- TGI (MDA-MB-231 breast): > 100 µM
- TGI (NCI/ADR-RES ovarian): > 100 µM
- TGI (HOP-62 NSCLC): > 100 µM
- TGI (IGROV1 ovarian): > 100 µM
- TGI (SR leukemia): > 100 µM
- TGI (K-562 leukemia): > 100 µM
- TGI (SK-MEL-28 melanoma): > 100 µM
- TGI (NCI-H460 lung): > 100 µM
- TGI (HL-60(TB) leukemia): > 100 µM
- TGI (ACHN renal): > 100 µM
- TGI (HS 578T breast): > 100 µM
- TGI (SW-620 colon): > 100 µM
- TGI (786-0 renal): > 100 µM
- TGI (U251 CNS): > 100 µM
- TGI (SNB-19 CNS): > 100 µM
- TGI (HT29 colon): > 100 µM
- TGI (MDA-MB-435): > 100 µM
- TGI (HCT-116 colon): > 100 µM
- TGI (MCF7 breast): > 100 µM
- TGI (SN12C renal): > 100 µM
- TGI (T-47D breast): > 100 µM
- TGI (SNB-75 CNS): > 100 µM
- TGI (OVCAR-5 ovarian): > 100 µM
- TGI (OVCAR-8 ovarian): > 100 µM
- TGI (M14 melanoma): > 100 µM
- TGI (SK-OV-3 ovarian): > 100 µM
- TGI (COLO 205 colon): > 100 µM
- TGI (SK-MEL-5 melanoma): > 100 µM
- TGI (PC-3 prostate): > 100 µM
- TGI (EKVX NSCLC): > 100 µM
- TGI (KM12 colon): > 100 µM
- TGI (UO-31 renal): > 100 µM
- TGI (MOLT-4 leukemia): > 100 µM
- TGI (HCT-15 colon): > 100 µM
- TGI (OVCAR-4 ovarian): > 100 µM
- TGI (TK-10 renal): > 100 µM

Compound: N#C/C(C(=O)Nc1ccc(Cl)cc1)=C(/N)N1CCCCC1
- TGI (HCC-2998 colon): > 100 µM
- TGI (NCI-H23 lung): > 100 µM
- TGI (RPMI-8226 leukemia): > 100 µM
- TGI (A498 renal): > 100 µM
- TGI (OVCAR-3 ovarian): > 100 µM
- TGI (BT-549 breast): > 100 µM
- TGI (SF-539 CNS): > 100 µM
- TGI (UACC-257 melanoma): > 100 µM
- TGI (UACC-62 melanoma): > 100 µM
- TGI (DU-145 prostate): > 100 µM
- TGI (MDA-N): > 100 µM
- TGI (SF-295 CNS): > 100 µM
- TGI (CCRF-CEM leukemia): > 100 µM
- TGI (A549 NSCLC): > 100 µM
- TGI (NCI/ADR-RES ovarian): > 100 µM
- TGI (HOP-62 NSCLC): > 100 µM
- TGI (IGROV1 ovarian): > 100 µM
- TGI (SR leukemia): > 100 µM
- TGI (SK-MEL-2 melanoma): > 100 µM
- TGI (K-562 leukemia): > 100 µM
- TGI (SK-MEL-28 melanoma): > 100 µM
- TGI (NCI-H460 lung): > 100 µM
- TGI (HL-60(TB) leukemia): > 100 µM
- TGI (ACHN renal): > 100 µM
- TGI (SW-620 colon): > 100 µM
- TGI (786-0 renal): > 100 µM
- TGI (U251 CNS): > 100 µM
- TGI (SNB-19 CNS): > 100 µM
- TGI (HOP-92 NSCLC): > 100 µM
- TGI (MDA-MB-435): > 100 µM
- TGI (HCT-116 colon): > 100 µM
- TGI (MCF7 breast): > 100 µM
- TGI (SN12C renal): > 100 µM
- TGI (NCI-H226 lung): > 100 µM
- TGI (T-47D breast): > 100 µM
- TGI (SNB-75 CNS): 72.3 µM
- TGI (OVCAR-5 ovarian): > 100 µM
- TGI (OVCAR-8 ovarian): > 100 µM
- TGI (M14 melanoma): > 100 µM
- TGI (CAKI-1 renal): > 100 µM
- TGI (SK-OV-3 ovarian): > 100 µM
- TGI (COLO 205 colon): > 100 µM
- TGI (SK-MEL-5 melanoma): > 100 µM
- TGI (PC-3 prostate): > 100 µM
- TGI (EKVX NSCLC): > 100 µM
- TGI (KM12 colon): > 100 µM
- TGI (UO-31 renal): > 100 µM
- TGI (MOLT-4 leukemia): > 100 µM
- TGI (HCT-15 colon): > 100 µM
- TGI (LOX IMVI melanoma): > 100 µM
